This is an account of results in US12138250B2, “Formulations of 6-(2-hydroxy-2-methylpropoxy)-4-(6-(6-((6-methoxypyridin-3-yl)methyl)-3,6-diazabicyclo[3.1.1]heptan-3-yl)pyridin-3-yl)pyrazolo[1,5-a]pyridine-3-carbonitrile” (Loxo Oncology, Inc., priority 2017, dated 2024).

Where two headings read alike, the source gives them in different places.

For data set [1] the following is noted: salt screen, succinic acid.
Data set [2] in a line: Gravimetric Vapor Sorption (GVS). In kind it is physicochemical. As for the experimental part: Approximately 10-20 mg of sample was placed into a mesh vapor sorption balance pan and loaded into an IGASorp Moisture Sorption Analyzer balance by Hiden Analytical. The sample was subjected to a ramping profile from 40-90% RH at 10% increments, maintaining the sample at each step until a stable weight had been achieved (98% step completion). After completion of the sorption cycle, the sample was dried using the same procedure to 0% RH, and finally taken back to the starting point of 40% RH. The weight change during the sorption/desorption cycles were plotted, allowing for the hygroscopic nature of the sample to be determined.

For `O=C(O)CCC(=O)O` [Succinic acid], the XRPD post-cycling result in data set [1] (IPA/water (10%)) and in data set [1] (MeCN/water (20%)) was “Form 8” throughout. For the same compound, the XRPD post-stability entry in data set [1] (MeCN/water (20%), overnight 40° C. and 75% RH) is given as “Form 8”.
Turning to `COc1ccc(CN2C3CC2CN(c2ccc(-c4cc(OCC(C)(C)O)cn5ncc(C#N)c45)cn2)C3)cn1` [Form 1], in data set [2], the “form or crystallinity by XRPD post-GVS analysis” value was “No change in form” and the “hygroscopicity by GVS” value is listed as “moderately hygroscopic”. Further, in data set [2] (at 90% RH), the “weight increase by GVS” value is recorded as 2.6%.
